Literature values, collected in patent publication US6500456B1 (priority 1997, dated 2002).

Conditions: at 20° C., pure nitroglycerin

For `O=[N+]([O-])OCC(CO[N+](=O)[O-])O[N+](=O)[O-]` [nitroglycerin], the Vapor pressure is given as “about 0.00026 mm”.
